Assay results from ChEMBL document CHEMBL6083273, “Targeting Periplakin of Novel Benzenesulfonamides as Highly Selective Agonists for the Treatment of Vitiligo” (2024).
Activity calls are given as the source filed them. The rule behind the calls is not given here.

Tests used:
[1] = species on record: Danio rerio; experiment: Induction of melanogenesis in zebrafish treated for 24 hrs by absorbance based assay; format: functional, organism-based
[2] = species on record: Danio rerio; experiment: Induction of melanogenesis in zebrafish at 40 uM treated for 24 hrs by absorbance based assay relative to control; format: functional
[3] = species on record: Danio rerio; experiment: Induction of melanogenesis in zebrafish at 10 uM treated for 24 hrs by absorbance based assay; format: functional, organism-based
[4] = tested on: Mus musculus; experiment: Induction of melanogenesis in hydroquinone-induced vitiligo C57BL/6J mouse assessed as darker hair color administered topically for 20 days; format: functional, organism-based; conditions: route top, time 20.0 day
[5] = tested on: Mus musculus; experiment: Induction of melanogenesis in hydroquinone-induced vitiligo C57BL/6J mouse at 1.5 % administered topically for 20 days by Masson-Fontana staining based analysis; format: functional, organism-based; conditions: route top, time 20.0 day
[6] = species on record: Danio rerio; experiment: Induction of melanogenesis in wild-type zebrafish at 10 uM treated for 24 hrs by absorbance based assay; format: functional, organism-based
[7] = species on record: Danio rerio; experiment: Induction of melanogenesis in zebrafish harboring PPL-/- at 10 uM treated for 24 hrs by absorbance based assay; format: functional, organism-based
[8] = Induction of melanogenesis in co-culture of HEK293 cells and mouse B16-F10 cells at 10 uM incubated for 48 hrs by Masson-Fontana staining based analysis relative to control; format: functional
[9] = Induction of melanogenesis in co-culture of HEK293 cells transfected with PPL (unknown origin) and mouse B16-F10 cells at 10 uM incubated for 48 hrs by Masson-Fontana staining based analysis relative to control; format: functional
[10] = species on record: Danio rerio; experiment: Binding affinity to PPL in zebrafish incubated for 10 mins by LiP-SMap analysis; conditions: filed as agonist
[11] = species on record: Danio rerio; experiment: Binding affinity to PPL in zebrafish at 10 uM by pull down assay; conditions: filed as agonist
[12] = species on record: Danio rerio; experiment: Induction of melanogenesis in zebrafish treated for 24 hrs by absorbance based assay (reference value: 98.2 to 100.3 %); format: functional
[13] = tested on: Mus musculus; experiment: In vivo agonist activity at PPL in skin of hydroquinone-induced vitiligo C57BL/6J mouse at 1.5 % administered topically for 20 days by immunofluorescence analysis; format: functional, organism-based; conditions: time 20.0 day
[14] = species on record: Danio rerio; experiment: Effect on purine metabolism in zebrafish embryo at 10 uM by KEGG pathway-enrichment analysis; format: functional, organism-based
[15] = species on record: Danio rerio; experiment: Effect on histidine metabolism in zebrafish embryo at 10 uM by KEGG pathway-enrichment analysis; format: functional, organism-based
[16] = species on record: Danio rerio; experiment: Effect on pyrimidine metabolism in zebrafish embryo at 10 uM by KEGG pathway-enrichment analysis; format: functional, organism-based
[17] = tested on: Danio rerio; experiment: In vivo agonist activity at PPL in zebrafish assessed as increase in cAMP content at 10 uM by ELISA; format: functional, organism-based
[18] = tested on: Danio rerio; experiment: In vivo agonist activity at PPL in zebrafish assessed as increase in mitfa mRNA level at 10 uM by ISH analysis; format: functional, organism-based
[19] = tested on: Danio rerio; experiment: In vivo agonist activity at PPL in zebrafish assessed as increase in mitfa mRNA level at 10 uM by qRT-PCR analysis; format: functional, organism-based
[20] = tested on: Danio rerio; experiment: In vivo agonist activity at PPL in zebrafish assessed as increase in Tyr mRNA level at 10 uM by ISH analysis; format: functional, organism-based
[21] = tested on: Danio rerio; experiment: In vivo agonist activity at PPL in zebrafish assessed as increase in Dct mRNA level at 10 uM by ISH analysis; format: functional, organism-based
[22] = species on record: Danio rerio; experiment: Effect on cAMP content in zebrafish harboring PPL-/- at 10 uM by ELISA; format: functional, organism-based
[23] = species on record: Danio rerio; experiment: Effect on mitfa mRMA level in zebrafish harboring PPL-/- at 10 uM by qRT-PCR analysis; format: functional
[24] = species on record: Danio rerio; experiment: Effect on tryptophan metabolism in zebrafish embryo assessed as 3-HAA metabolite level at 10 uM by LC/MS analysis; format: functional
[25] = species on record: Danio rerio; experiment: Effect on tryptophan metabolism in zebrafish embryo assessed as 3-HK metabolite level at 10 uM by LC/MS analysis; format: functional
[26] = species on record: Danio rerio; experiment: Effect on tryptophan metabolism in zebrafish embryo assessed as 5-HIAA metabolite level at 10 uM by LC/MS analysis; format: functional
[27] = species on record: Danio rerio; experiment: Effect on tryptophan metabolism in zebrafish embryo assessed as 5-HTOL metabolite level at 10 uM by LC/MS analysis; format: functional
[28] = species on record: Danio rerio; experiment: Effect on tryptophan metabolism in zebrafish embryo assessed as 5-HTP metabolite level at 10 uM by LC/MS analysis; format: functional
[29] = species on record: Danio rerio; experiment: Effect on tryptophan metabolism in zebrafish embryo assessed as AA metabolite level at 10 uM by LC/MS analysis; format: functional
[30] = species on record: Danio rerio; experiment: Effect on tryptophan metabolism in zebrafish embryo assessed as IA metabolite level at 10 uM by LC/MS analysis; format: functional
[31] = species on record: Danio rerio; experiment: Effect on tryptophan metabolism in zebrafish embryo assessed as IAA metabolite level at 10 uM by LC/MS analysis; format: functional
[32] = species on record: Danio rerio; experiment: Effect on tryptophan metabolism in zebrafish embryo assessed as IAN metabolite level at 10 uM by LC/MS analysis; format: functional
[33] = species on record: Danio rerio; experiment: Effect on tryptophan metabolism in zebrafish embryo assessed as ICA metabolite level at 10 uM by LC/MS analysis; format: functional
[34] = species on record: Danio rerio; experiment: Effect on tryptophan metabolism in zebrafish embryo assessed as LE metabolite level at 10 uM by LC/MS analysis; format: functional
[35] = species on record: Danio rerio; experiment: Effect on tryptophan metabolism in zebrafish embryo assessed as IGA metabolite level at 10 uM by LC/MS analysis; format: functional
[36] = species on record: Danio rerio; experiment: Effect on tryptophan metabolism in zebrafish embryo assessed as ILA metabolite level at 10 uM by LC/MS analysis; format: functional
[37] = species on record: Danio rerio; experiment: Effect on tryptophan metabolism in zebrafish embryo assessed as indole metabolite level at 10 uM by LC/MS analysis; format: functional
[38] = species on record: Danio rerio; experiment: Effect on tryptophan metabolism in zebrafish embryo assessed as IPA metabolite level at 10 uM by LC/MS analysis; format: functional
[39] = species on record: Danio rerio; experiment: Effect on tryptophan metabolism in zebrafish embryo assessed as KYNA metabolite level at 10 uM by LC/MS analysis; format: functional
[40] = species on record: Danio rerio; experiment: Effect on tryptophan metabolism in zebrafish embryo assessed as NA metabolite level at 10 uM by LC/MS analysis; format: functional
[41] = species on record: Danio rerio; experiment: Effect on tryptophan metabolism in zebrafish embryo assessed as NAS metabolite level at 10 uM by LC/MS analysis; format: functional
[42] = species on record: Danio rerio; experiment: Effect on tryptophan metabolism in zebrafish embryo assessed as skatole metabolite level at 10 uM by LC/MS analysis; format: functional
[43] = species on record: Danio rerio; experiment: Effect on tryptophan metabolism in zebrafish embryo assessed as Trp metabolite level at 10 uM by LC/MS analysis; format: functional
[44] = species on record: Danio rerio; experiment: Effect on tryptophan metabolism in zebrafish embryo assessed as Xa metabolite level at 10 uM by LC/MS analysis; format: functional
[45] = species on record: Danio rerio; experiment: Effect on tryptophan metabolism in zebrafish embryo assessed as indican metabolite level at 10 uM by LC/MS analysis; format: functional

With `Cc1cc(-c2ccc([C@H](C)Nc3nccc(NS(=O)(=O)c4cccc([N+](=O)[O-])c4)n3)cc2)ccc1F` the Activity [1] was “Dose-dependent-effect”, the Emax at 40 µM [2] was 197% and the Activity [3] was “Active”. For the same compound, the Activity [4] was “Dose-dependent-effect”, the Activity [5] was “Active; Calcipotriene And Ruxolitinib Was Considerably Less Than The Compound At Concentration Of 1.5%” and the Activity [6] was “Active”. The Activity [7] was “inactive”, the Activity [8] was 107.32% and the Activity [9] was 137.24%. For the same compound, the Activity [10] was “Active”, the Activity [11] was “Active” and the Activity [12] was 171.43%. The Activity [13] was “Active”, the Activity [14] was “Active” and the Activity [15] was “Active”. The Activity [16] was “Active”, the Activity [17] was “Active” and the Activity [18] was “Active”. For the same compound, the Activity [19] was “Active”, the Activity [20] was “Active” and the Activity [21] was “Active”. The Activity [22] was “No effect”, the Activity [23] was “No effect” and the Activity [24] was 3.14 nmol/kg. The Activity [25] was 81.53 nmol/kg, the Activity [26] was 76.93 nmol/kg and the Activity [27] was 0.03 nmol/kg. It also gave an Activity [28] of 41.08 nmol/kg, an Activity [29] of 15.09 nmol/kg and an Activity [30] of 21.8 nmol/kg. The Activity [31] was 4.89 nmol/kg, the Activity [32] was 16.28 nmol/kg and the Activity [33] was 24.76 nmol/kg. It also gave an Activity [34] of 41.42 nmol/kg, an Activity [35] of 1.2 nmol/kg and an Activity [36] of 109.9 nmol/kg. For the same compound, the Activity [37] was 635.89 nmol/kg, the Activity [38] was 20.08 nmol/kg and the Activity [39] was 8.23 nmol/kg. It also gave an Activity [40] of 2295.89 nmol/kg, an Activity [41] of 0.07 nmol/kg and an Activity [42] of 527.99 nmol/kg. It also gave an Activity [43] of 203749.8 nmol/kg and an Activity [44] of 399.41 nmol/kg.
For `Cc1cc(-c2ccc([C@H](C)Nc3nccc(NS(=O)(=O)c4ccc([N+](=O)[O-])cc4)n3)cc2)ccc1F`, the Activity [12] was 108.21%, the Activity [24] was 3.54 nmol/kg and the Activity [25] was 93.63 nmol/kg. It also gave an Activity [26] of 55.63 nmol/kg, an Activity [27] of 0.03 nmol/kg and an Activity [28] of 54.62 nmol/kg. For the same compound, the Activity [29] was 14.25 nmol/kg, the Activity [30] was 22 nmol/kg and the Activity [31] was 3.45 nmol/kg. It also gave an Activity [32] of 17.69 nmol/kg, an Activity [33] of 38.27 nmol/kg and an Activity [34] of 32.11 nmol/kg. It also gave an Activity [35] of 2.84 nmol/kg, an Activity [36] of 105.98 nmol/kg and an Activity [45] of 0.95 nmol/kg. It also gave an Activity [37] of 788.07 nmol/kg, an Activity [38] of 19.38 nmol/kg and an Activity [40] of 2107.11 nmol/kg. For the same compound, the Activity [41] was 0.06 nmol/kg, the Activity [42] was 582.83 nmol/kg and the Activity [43] was 206300.5 nmol/kg. The Activity [44] was 430.99 nmol/kg.
